Experiments:
[1] = system: morphine-dependent ovariectomized (OVX) rat; test: Morphine-dependent OVX rat hot flush model, naloxone-induced tail skin temperature rise; format: in vivo
Experimental: The morphine-dependent ovariectomized (OVX) rat was used as a model for postmenopausal hot flush. The potency of estetrol (E4) to prevent tail skin temperature rises, normally accompanied by a drop in core body temp arature, after naloxone-induced opiate withdrawel was tested. 17α-ethinyl-estradiol (EE) and vehicle. (hydroxy propyl-beta-cyclodextrin 20% wt/vol) served as controls in this bioassay.
The morphine-dependent ovariectomized (OVX) rat model has been proposed by several investigators (Katovich et al, 1986, Maturitas, 67-76; Merchenthaler et al. 1998, Maturitas, 307-316) as an animal model for the hot flush. During opiate withdrawal with the morphine antagonist naloxone, tail skin temperature (TST) rises and this rise is accompanied by a drop in core body temperature. In addition, the temperature changes are accompanied by surges in LH and a transient tachycardia. These events are similar in magnitude and temporal nature to those observed in the menopausal hot flush.
Three days prior to the commencement of dosing, animals were anesthetized using a ketamine/xylazine anesthetic mixture and underwent a bilateral ovariectomy. […]
For the hot flush manipulations the animals were placed in a test cage. […] The tail-skin temperature was recorded until it was stable and the animals were then injected with naloxone HCl (1 mg/kg). […]

[2] = target: T1, human sex Hormone Binding Globulin (SHBG) (Homo sapiens, UniProt P04278); test: Competitive steroid-binding assay, SHBG; conditions: [3H]DHT or [3H]estradiol as labeled ligands (FIG. 6)
T1 construct: Human SHBG was purified from transgenic mouse serum, as described previously; from tissue; host or cells: serum of mice transgenic for human SHBG
T1 sequence (P04278 30-402): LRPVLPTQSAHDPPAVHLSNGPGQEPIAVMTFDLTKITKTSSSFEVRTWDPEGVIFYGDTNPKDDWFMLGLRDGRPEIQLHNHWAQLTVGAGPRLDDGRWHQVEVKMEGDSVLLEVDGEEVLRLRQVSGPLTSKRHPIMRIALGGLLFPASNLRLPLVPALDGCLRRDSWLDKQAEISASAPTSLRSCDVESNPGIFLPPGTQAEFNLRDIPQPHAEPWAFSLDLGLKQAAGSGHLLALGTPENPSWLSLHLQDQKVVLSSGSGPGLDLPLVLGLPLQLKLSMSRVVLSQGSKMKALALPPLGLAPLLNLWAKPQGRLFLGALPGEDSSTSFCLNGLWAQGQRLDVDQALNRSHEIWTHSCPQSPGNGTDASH
Experimental: Human SHBG was treated for 30 min at room temperature with a dextran-coated charcoal (DCC) suspension in phosphate buffered saline (PBS) to remove any steroid ligand. After centrifugation (2,000×g for 10 min) to sediment the DCC, the supernatant containing the human SHBG was diluted in PBS to a concentration of 1 nM based on its steroid binding capacity.
After incubation for 1 h at room temperature the. reaction mixtures were placed in an ice bath for a further 15 muin. […] The average amounts of [^3H]labeled ligands bound to SHBG at each concentration of competitor (B) were expressed as a percentage of the average amounts of [^3H]labeled ligands bound to SHBG in the absence of competitor (B0), and were plotted against the concentration of competitor in each assay tube.

[3] = target: T2, rat uterine cytosol estrogen receptor (Rattus norvegicus, UniProt P06211); conditions: cited from earlier work
T2 construct: host or cells: rat uterus (cytosol and nuclear fractions), Martucci et al. 1976
T2 sequence (P06211 1-600): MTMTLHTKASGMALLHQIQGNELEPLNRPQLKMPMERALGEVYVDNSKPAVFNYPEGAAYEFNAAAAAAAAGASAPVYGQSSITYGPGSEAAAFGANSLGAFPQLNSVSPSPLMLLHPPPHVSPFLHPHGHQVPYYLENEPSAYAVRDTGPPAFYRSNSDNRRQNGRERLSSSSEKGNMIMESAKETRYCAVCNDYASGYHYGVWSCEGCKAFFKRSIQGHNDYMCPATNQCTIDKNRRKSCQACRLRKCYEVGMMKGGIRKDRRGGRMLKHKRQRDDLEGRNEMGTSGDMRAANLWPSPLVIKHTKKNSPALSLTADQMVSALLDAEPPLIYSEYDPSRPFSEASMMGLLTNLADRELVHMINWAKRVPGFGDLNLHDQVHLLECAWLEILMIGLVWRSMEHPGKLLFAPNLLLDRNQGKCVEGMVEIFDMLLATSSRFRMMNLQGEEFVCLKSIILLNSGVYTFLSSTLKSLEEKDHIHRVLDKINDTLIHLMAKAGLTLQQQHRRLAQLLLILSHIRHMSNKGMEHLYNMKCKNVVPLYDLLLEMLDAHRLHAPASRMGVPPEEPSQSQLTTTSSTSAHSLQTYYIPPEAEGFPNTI

relative binding affinity for human SHBG [2]: does not bind at all
Compound: C[C@]12CC[C@@H]3c4ccc(O)cc4CC[C@H]3[C@@H]1[C@@H](O)[C@@H](O)[C@@H]2O [E4, 1,3,5 (10)-estratrien-3,15α,16α,17β-tetrol]
suppressive response on TST compared with EE ([1]; po, 3.0 mg/kg/day (FIG. 3)): suppressive response similar to the potent oral estrogen, 17α-ethinyl estradiol (EE)
effect on naloxone-induced tail skin temperature (TST) ([1]; po, 0.3, 1.0 and 3.0 mg/kg/day (FIG. 3)): attenuated the TST
relative binding affinity, 17β-estradiol = 100% [3]: 0.5%
